The values below come from PubChem BioAssay (NCI).

Some test systems named below: A498 renal; KM12 colon; NCI-H522 lung; SR leukemia; NCI-H23 lung; UACC-257 melanoma; SF-539 CNS; SK-OV-3 ovarian; SK-MEL-5 melanoma; MALME-3M melanoma.
Holding throughout (assay): inhibition of tumour cell growth, NCI panel, 48 h

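Method: 48-hour compound exposure of cells in 96-well plates, five concentrations, linear interpolation of endpoints. GI50 = concentration required for 50% inhibition of growth. TGI is the concentration that stops growth completely.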

Turning to `CC(C)(Br)C(=O)/C=C/c1ccccc1`, the TGI in the assay on A498 renal was 36.9 µM; in the assay with KM12 colon, 43.6 µM; with NCI-H522 lung, 0.381 µM; in the assay with SR leukemia it was greater than 25.6 µM; in the assay with NCI-H23 lung it was 5 µM; in the assay with UACC-257 melanoma it was 28.8 µM. Moreover, the TGI with SF-539 CNS is 25.6 µM; in the assay on SK-OV-3 ovarian, greater than 83.1 µM; with SK-MEL-5 melanoma, 27.5 µM; in the assay with MALME-3M melanoma it was 10.2 µM.

With `O=C(NN1C(=O)CSC1c1ccc(Cl)cc1)c1[nH]c2ccc(F)cc2c1-c1ccccc1` (stereo not given), the GI50 in the assay on A498 renal was 2.98 µM; with KM12 colon, 1.61 µM; in the assay on NCI-H522 lung, 4.34 µM; with SR leukemia, 2.27 µM; in the assay with NCI-H23 lung, 2.26 µM; with UACC-257 melanoma, 10.5 µM. For the same compound, the GI50 in the assay on SF-539 CNS is 6.08 µM; in the assay on SK-OV-3 ovarian it was 7.25 µM; in the assay on SK-MEL-5 melanoma, 5.92 µM; in the assay with MALME-3M melanoma it was 6.03 µM. Besides, the TGI came out at 9.79 µM in the assay with A498 renal; 3.38 µM in the assay with KM12 colon; 14.8 µM in the assay on NCI-H522 lung; 6.27 µM with SR leukemia; 6.59 µM with NCI-H23 lung; 25.6 µM in the assay on UACC-257 melanoma. In addition, the TGI in the assay on SF-539 CNS is 13.5 µM; with SK-OV-3 ovarian, 20 µM; with SK-MEL-5 melanoma, 16 µM; with MALME-3M melanoma, greater than 42.8 µM.

As for `O=[N+]([O-])c1ccc(CS(=O)Cc2ccccc2)cc1` (stereo not given), the TGI in the assay with A498 renal, in the assay with KM12 colon, in the assay with NCI-H522 lung, in the assay with SR leukemia, in the assay on NCI-H23 lung and in the assay with UACC-257 melanoma was greater than 100 µM throughout. The TGI in the assay with SF-539 CNS, with SK-OV-3 ovarian, in the assay with SK-MEL-5 melanoma and in the assay with MALME-3M melanoma was greater than 100 µM in each case.

For the compound `Cc1ncc([N+](=O)[O-])n1CCNC(=O)CCCn1cnc([N+](=O)[O-])n1`, the TGI with A498 renal, in the assay with KM12 colon, in the assay on NCI-H522 lung, in the assay on SR leukemia, in the assay with NCI-H23 lung and in the assay on UACC-257 melanoma was greater than 100 µM each time. In addition, the TGI in the assay on SF-539 CNS, in the assay on SK-OV-3 ovarian, in the assay on SK-MEL-5 melanoma and in the assay on MALME-3M melanoma was greater than 100 µM in each case.

For `Oc1cc(Cl)ccc1Oc1ccc(Cl)cc1Cl`, the GI50 in the assay with A498 renal was 2.8 µM; in the assay with KM12 colon, 3.6 µM; in the assay with NCI-H522 lung, 2.36 µM; in the assay with SR leukemia, 3.46 µM; in the assay with NCI-H23 lung it was 2.07 µM; in the assay on UACC-257 melanoma it was 2.28 µM. Besides, the GI50 in the assay on SF-539 CNS is 2.58 µM; in the assay with SK-OV-3 ovarian, 2.97 µM; with SK-MEL-5 melanoma, 1.75 µM; with MALME-3M melanoma, 2.37 µM. Further, the TGI with A498 renal was 14.1 µM; in the assay with KM12 colon, 12.7 µM; in the assay with NCI-H522 lung, 6.05 µM; with SR leukemia it was 10.9 µM; in the assay with NCI-H23 lung, 5.5 µM; in the assay with UACC-257 melanoma, 6.48 µM. Further, the TGI in the assay on SF-539 CNS is 7.74 µM; with SK-OV-3 ovarian, 7.86 µM; in the assay with SK-MEL-5 melanoma, 3.59 µM; in the assay with MALME-3M melanoma it was 6.83 µM.
